Results on four compounds are retold here after patent US20040038952A1, “Pharmaceutical compositions for treatment of digestive disorders and associated diseases” (priority 2000, published 2004).

“Also recorded” adds a separate entry of the source.

Assay [1] deals with female patients affected by digestive disorders, "dry eye" syndrome and premenstrual syndrome. Kind of assay: Improvement of activity of fat-soluble substances: "dry eye" syndrome symptoms. It is filed as in vivo, human. The procedure:
(§1) 72 female patients affected by digestive disorders, “dry eye” syndrome and premenstrual syndrome were treated Intramuscularly administered vitamin A improved the symptoms of “dry eye” and premenstral syndrome, but it was ineffective by peroral administration.
The subjective symptoms were evaluated by questionairs by using the following grade:
“Dry eye” syndrome has the following symptoms: sensation of dryness, foreign body, tired eye, soreness, scatchiness, burning, reduced tearing of emotion, difficulties of opening the eye upon waking, episodes of excessive tearing, particular sensibility to wind, air conditioning, smoking, topical medication. Objective signs: particulate matter on the ocular surface, mucusthread at the inner canthus or in the lower fornix, deposits at the orefices of the meibomian glands, filamentary keratitis, hyperemia of the bulbar conjunctiva, papillary hypertrophy of the tarsal conjunctiva, thin tear meniscus, decreased brightness of the bulbar conjunctiva, frequent blinking, tear film abnormalities with fluorescein staining.
The patients were treated as follows:
(§2) Treatment A: 300.000 IU vitamin A in oil intramuscular administration ones per months,
(§3) Treatment B: 50.000 IU vitamin A acetate dragée peroral administration, once every second day,
(§4) Treatment C: 50.000 IU vitamin A acetate dragée peroral administration, once every second day+composition of the invention (Example 4).

The test system is the same in assay [2]. The assay is described as follows: Treatment of premenstrual symptoms. The class given is in vivo, human. How it is done: as §1, §2, §3, §4
Symptoms of the premenstrual syndrome: food (sweets or chocolate) craving, exhaustion, irritability, fearfullness, anxiety or depression, hostility, feeling out of control, confusion, sleep disturbances, acne, fluid retention, weight gain, breast swelling, aches and pains, bloating, constipation or diarrhoea.
The number of patients, methods of treatment and the grade of evaluation were the same as shown in experiment 3.

The test system of assay [3] is Dry eye model in Wistar rats by retrobulbar injection of capsaicin. The assay is described as follows: Topical treatment of "dry eye": capsaicin dry eye model. The class given is in vivo. The note with it: one drop 3 times per day. How it is done: Dry eye model was created in 16 Wistar rats in one eye by retrobulbar injection of capsaicin as it was published in [Camras PCB, Bito L Z: The pathophysiological effects of nitrogen mustard on the rabbit eye. II. The inhibition of the initial hypersensitive phase by capsaicin and the apparent role of substance P. Invest Ophthaimol Vis Sci. 19, 423-8 (1980)], while the other eye (control) was not treated at all.
The following treatments were applied:
A treatment: 4 rats were treated with topical artificial tear drops, one drop 3 times per day;
B treatment: 4 rats were treated with the composition of Example 10, one drop 3 times per day,
C treatment: 4 rats were treated with the composition of Example 10, one drope 3 times per day+one drop of vitamin A 3 times per day (oil drop; 30 000 IU/ml),
D treatment: 4 rats were treated with vitamin A, one drop 3 times per day (oil drop 30 000 IU/ml).
The condition of eyes were registered as written in the literature and evaluated 4 weeks after treatment on the following scale:
1=punctiform ephitelial loss of the cornea;
2=large ephitelial loss of the cornea with mild corneal edema;
3=large ephitelial loss of the cornea with severe corneal edema.

In assay [4] the test system is patients affected by either non-ulcer dyspepsia, biliary dyskinesis or irritable bowel syndrome. The assay is described as follows: Open clinical study in digestive disorders: overall (psychosomatic) condition. The class given is in vivo, human. The conditions noted are these: % of cases, 3 months, group A 150 mg ursodeoxycholic acid, group B 300 mg quercetin, group C Example 2; for Overall (psychosomatic) condition: Improved: unrestricted fat diet. From the text:
The patients treated with the composition of the invention during or at the end of the meals were able to digest any type of foods including heavy or spicy ones. […] The improvement of the symptoms of patients treated with the composition of Example 2 was higher than that of the bile acid or bioflavonoid treatment alone.
(§5) In these studies 48 patients affected by either non-ulcer dyspepsia, biliary dyskinesis or irritable bowel syndrome were involved. 24 patients with unrestricted fat diet received only 150 mg of ursodeoxycholic acid (group A) and 24 patients only bioflavonoid (300 mg of quercetin) (group B) for 3 months. After one-month washout both groups received ursodeoxycholic acid+quercetin (Example 2) (group C) for another 3 months.
The overall (psychosomatic) condition and subjective symptoms were compared to the results of an age and sex matched control group.
The evaluation of the psychosomatic condition: improved, unchanged, worsened.

Assay [5] shares this test system. Kind of assay: Open clinical study in digestive disorders: subjective gastrointestinal symptoms, grade 0-3. It is filed as in vivo, human. The note with it: total number of points/number of patients, 3 months, control group value in brackets. How it is done: as §5
The gastrointestinal symptoms (postprandial early satiety, abdominal distention or bloating, nausea, vomitus, diarrhea, constipation) were evaluated by using the following grading system:
The treatments A, B and C shown in point 1 were used. In Table 2 the average complaint ratio related to one patient was given (average complaint ratio=total number of points/number of patients). The values of the control groups are given in brackets.

Setting [6] is: Treatment A: 300.000 IU vitamin A in oil, intramuscular, once per month.
The mark [7] stands for this setting: peroral, 50.000 IU vitamin A acetate dragée once every second day (Treatment B alone, Treatment C + Example 4).

On to vitamin A, for which, in assay [1] (setting [6]), the “"Dry eye" symptoms: Improved” value came to 80% and the “"Dry eye" symptoms: Unchanged” value amounted to 20%. Moreover, the “Symptoms of "dry eye", in words” value in assay [1] (intramuscular administration) is reported as “improved”. In addition, in assay [1] (peroral administration), the “Symptoms of "dry eye", in words” value is recorded as “ineffective; also recorded: improved only weakly”. Also, in assay [2] (setting [6]), the “Premenstrual symptoms: Improved” value stood at 72% and the “Premenstrual symptoms: Unchanged” value is 28%. For the same compound, the “Symptoms of premenstrual syndrome, in words” value in assay [2] (intramuscular administration) was “improved”. Moreover, the “Symptoms of premenstrual syndrome, in words” value in assay [2] (peroral administration) is given as “ineffective; also recorded: hardly improve”. Besides, the “Improvement of eye alteration (in words)” value in assay [3] (compared to artificial tear drops) is listed as “not significant”. Further, in assay [3] (evaluated 4 weeks after treatment on scale 0-3, vitamin A oil drop 30 000 IU/ml), the “Reduced eye alteration compared to treatment with artificial tear drop (treatment A)” value is recorded as under 5%.
Consider `CC(=O)OC/C=C(C)/C=C/C=C(C)/C=C/C1=C(C)CCCC1(C)C` [vitamin A acetate], for which, in assay [1] (setting [7]), the “"Dry eye" symptoms: Improved” value is 12% and the “"Dry eye" symptoms: Unchanged” value is 88%. In assay [2] (setting [7]), the “Premenstrual symptoms: Improved” value is on record as 8% and the “Premenstrual symptoms: Unchanged” value was found to be 92%.
For the compound `O=c1c(O)c(-c2ccc(O)c(O)c2)oc2cc(O)cc(O)c12` [quercetin], in assay [4], the “Overall (psychosomatic) condition: Unchanged or worsened” value was 55% and the “Overall (psychosomatic) condition: Improved” value stood at 45%. Also, in assay [5], the “Diarrhoea/constipation, average complaint ratio” value is listed as 0.63 (2.54); the “Meteorism, average complaint ratio” value is reported as 1.96 (2.33); the “Nausea, average complaint ratio” value is listed as 0.92 (1.25); the “Satiety, average complaint ratio” value is given as 2.04 (2.86). In addition, the “Vomitus, average complaint ratio” value in assay [5] is on record as 0.46 (0.75).
Turning to `C[C@H](CCC(=O)O)[C@H]1CC[C@H]2[C@@H]3[C@@H](O)C[C@@H]4C[C@H](O)CC[C@]4(C)[C@H]3CC[C@]12C` [ursodeoxycholic acid], in assay [4], the “Overall (psychosomatic) condition: Unchanged or worsened” value was found to be 33% and the “Overall (psychosomatic) condition: Improved” value is reported as 67%. Also, in assay [5], the “Diarrhoea/constipation, average complaint ratio” value is listed as 2.19 (2.54); the “Meteorism, average complaint ratio” value is given as 2.12 (2.78); the “Nausea, average complaint ratio” value is 0.83 (1.17); the “Satiety, average complaint ratio” value is 2.06 (2.92). The “Vomitus, average complaint ratio” value in assay [5] was 0.12 (0.83).
